# Assay results: patent US20230123334A1, “AMINO LIPID COMPOUND, PREPARATION METHOD THEREFOR, AND APPLICATION THEREOF” (SHENZHEN SHENXIN BIOTECHNOLOGY CO., LTD., priority 2020, published 2023)
# System: HEK293 cells
# Test: Preliminary screening as mRNA vectors, EGFP mRNA transfection of HEK293 cells
# Format: cell-based
# Settings: EGFP mRNA 50 ng per well, 96-well plates; percentage of GFP fluorescent cells relative to total number of cells (Hoechst)
# Method in brief: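 HEK293 cells in DMEM plus 10% FBS transfected in 96-well format with 50 ng EGFP mRNA per well; Lipofectamine2000 served as positive control. Read-out is the percentage of GFP-fluorescent cells among total cells, counted by Hoechst nuclear stain.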
row,SMILES,Absolute mRNA transfection efficiency in HEK293 cells
1,CCCCCCCCCCSc1nc(NCCCCCC)nc(NCCN(CC)CC)n1 [Compound D7S10N6],0.6%
2,CCCCCCCCCCCNc1nc(NCCN2CCN(C)CC2)nc(SCCCCCCCCC)n1 [Compound D5S9N11],32.1%
3,CCCCCCCCCCCCCCCCSc1nc(NCC2CCN(C)CC2)nc(SCCCCCCC)n1 [Compound D10S7S16],73.7%
4,CCCCCCCCCCCCCCCSc1nc(NCCCCCC)nc(NCCN2CCOCC2)n1 [Compound D2S15N6],4.9%
5,CCCCCCCCCCCCCCCSc1nc(NCCCCCC)nc(NCCN(CC)CC)n1 [Compound D7S15N6],2.7%
6,CCCCCCCCCCCCCCCSc1nc(NCCCCCCCC)nc(NCCCN2CCN(C)CC2)n1 [Compound D9S15N8],10.8%
7,CCCCCCCCCNc1nc(NCCN2CCCCC2)nc(SCCCCCC)n1 [Compound D4S6N9],1.1%
8,CCCCCCCCCCCCCCCCCCSc1nc(NCCCCCCCCCCCCCCCC)nc(NCCN2CCCCC2)n1 [Compound D4S18N16],0.4%
9,CCCCCCCCCCCCN(CCCCCCCCCCCC)c1nc(NCCN2CCOCC2)nc(SCCCCCC)n1 [D2S6^2N12],0.0%
10,CCCCCCCCCCCCCCCCCCSc1nc(NCCCCCCCCCCC)nc(NCCN2CCCC2)n1 [Compound D3S18N11],30.9%
11,CCCCCCCCCCCSc1nc(NCCCCCCCCC)nc(NCCN(C)C)n1 [Compound D1S11N9],14.7%
12,CCCCCCCCCNc1nc(NCCCN2CCN(C)CC2)nc(SCCCCCCC)n1 [Compound D9S7N9],5.2%
13,CCCCCCCCCCCCSc1nc(NCC2CCN(C)CC2)nc(SCCCCCCCC)n1 [Compound D10S8S12],67.9%
14,CCCCCCCSc1nc(NCCN(CC)CC)nc(SCCCCCC)n1 [Compound D7S6S7],22.9%
15,CCCCCCCCCCCCCCCNc1nc(NCCCN2CCN(C)CC2)nc(SCCCCCCCCCC)n1 [Compound D9S10N15],5.4%
16,CCCCCCCCCCSc1nc(NCCCCCCC)nc(NCC2CCN(C)CC2)n1 [Compound D10S10N7],1.0%
17,CCCCCCCCSc1nc(NCCCN2CCOCC2)nc(SCCCCCCCC)n1 [Compound D8S8S8],48.2%
18,CCCCCCCCCCCCSc1nc(NCCCCCCCCC)nc(NCCCN(C)C)n1 [Compound D6S12N9],24.0%
19,CCCCCCCCCCCCCCCSc1nc(NCCN(C)C)nc(SCCCCCCC)n1 [Compound D1S7S15],3.9%
20,CCCCCCCCCCCSc1nc(NCCN2CCOCC2)nc(SCCCCCC)n1 [Compound D2S6S11],7.4%
21,CCCCCCCCCCCNc1nc(NCCN2CCN(C)CC2)nc(SCCCCCCCCCC)n1 [Compound D5S10N11],11.0%
22,CCCCCCCCCCSc1nc(NCCCCCCC)nc(NCCN2CCCCC2)n1 [Compound D4S10N7],0.1%
23,CCCCCCCCCCCSc1nc(NCCCN2CCOCC2)nc(SCCCCCC)n1 [Compound D8S6S11],1.5%

row,SMILES,Absolute mRNA transfection efficiency in HEK293 cells
1,CCCCCCCCCCCCCCCNc1nc(NCC2CCN(C)CC2)nc(SCCCCCCCCCC)n1 [Compound D10S10N15],13.2%
2,CCCCCCCCCCCCCCCCNc1nc(NCCN(CC)CC)nc(SCCCCCCCCCCCCCCC)n1 [Compound D7S15N16],0.5%
3,CCCCCCCCCCCCCCCCCCNc1nc(NCCN2CCOCC2)nc(SCCCCCCCCCCCCCCCC)n1 [Compound D2S16N18],0.0%
4,CCCCCCCCCCCCCCCCCCSc1nc(NCCCCCCC)nc(NCCCN(C)C)n1 [Compound D6S18N7],87.5%
5,CCCCCCCCCCCCCCCNc1nc(NCCN(C)C)nc(SCCCCCCCCCCCCCC)n1 [Compound D1S14N15],1.1%
6,CCCCCCCCCCCCNc1nc(NCCN2CCN(C)CC2)nc(SCCCCCC)n1 [Compound D5S6N12],4.4%
7,CCCCCCCCCCCCNc1nc(NCC2CCN(C)CC2)nc(SCCCCCCCC)n1 [Compound D10S8N12],73.1%
8,CCCCCCCCCCCCCCSc1nc(NCCCCCCCCCCC)nc(NCCN2CCCCC2)n1 [Compound D4S14N11],3.8%
9,CCCCCCCCCCCCNc1nc(NCCN2CCCC2)nc(SCCCCCCCC)n1 [Compound D3S8N12],24.6%
10,CCCCCCCCCCCCN(CCCCCCCCCCCC)c1nc(NCCCN(C)C)nc(SCCCCCC)n1 [D6S6^2N12],0.0%
11,CCCCCCCCCCSc1nc(NCCN(C)C)nc(SCCCCCC)n1 [Compound D1S6S10],0.7%
12,CCCCCCCCCCSc1nc(NCC2CCN(C)CC2)nc(SCCCCCCCC)n1 [Compound D10S8S10],74.2%
13,CCCCCCCCCCCCCCCNc1nc(NCCN2CCCC2)nc(SCCCCCCCCCC)n1 [Compound D3S10N15],57.6%
14,CCCCCCCCCCCCCCSc1nc(NCC2CCN(C)CC2)nc(N(CCCCCCCCCCCC)CCCCCCCCCCCC)n1 [D10S14^2N12],0.2%
15,CCCCCCCCCCCCCCCCSc1nc(NCCN2CCCC2)nc(SCCCCCCC)n1 [Compound D3S7S16],11.6%
16,CCCCCCCCCCCCNc1nc(NCCN(CC)CC)nc(SCCCCCCCC)n1 [Compound D7S8N12],9.5%
17,CCCCCCCCCNc1nc(NCCN2CCOCC2)nc(SCCCCCCCCC)n1 [Compound D2S9N9],38.5%
18,CCCCCCCCCSc1nc(NCCN2CCN(C)CC2)nc(SCCCCCCCC)n1 [Compound D5S8S9],36.1%
19,CCCCCCCCCCCCCCCNc1nc(NCCN2CCN(C)CC2)nc(SCCCCCCCC)n1 [Compound D5S8N15],14.9%
20,CCCCCCCCCCCCCCCSc1nc(NCCCCCCCCC)nc(NCCN2CCCC2)n1 [Compound D3S15N9],15.4%
21,CCCCCCCCCCCCCCCSc1nc(NCCN(CC)CC)nc(SCCCCCC)n1 [Compound D7S6S15],1.3%
22,CCCCCCCCCCCCCCCSc1nc(NCCCCCCCCCCC)nc(NCC2CCN(C)CC2)n1 [Compound D10S15N11],2.7%
23,CCCCCCCCCCCCNc1nc(NCCCN2CCOCC2)nc(SCCCCCCCCCCC)n1 [Compound D8S11N12],1.0%

row,SMILES,Absolute mRNA transfection efficiency in HEK293 cells
1,CCCCCCCCCCCCN(CCCCCCCCCCCC)c1nc(NCCN2CCCC2)nc(SCCCCCCCCCC)n1 [D3S10^2N12],0.1%
2,CCCCCCCCCCCNc1nc(NCCN2CCCCC2)nc(SCCCCCCC)n1 [Compound D4S7N11],1.0%
3,CCCCCCCCCCCCCCCCCCNc1nc(NCCN(C)C)nc(SCCCCCCC)n1 [Compound D1S7N18],35.7%
4,CCCCCCCCCCCCCNc1nc(NCCN(C)C)nc(SCCCCCC)n1 [Compound D1S6N13],1.8%
5,CCCCCCCCCNc1nc(NCCCN(C)C)nc(SCCCCCCC)n1 [Compound D6S7N9],5.9%
6,CCCCCCCCCCCCCCCCNc1nc(NCCN2CCCC2)nc(SCCCCCCCCCCC)n1 [Compound D3S11N16],15.7%
7,CCCCCCCCCCCCCCCCSc1nc(NCCCN2CCN(C)CC2)nc(N(CCCCCCCCCCCC)CCCCCCCCCCCC)n1 [D9S16^2N12],2.7%
8,CCCCCCCCCCCCCCCCCCNc1nc(NCCN2CCN(C)CC2)nc(SCCCCCCCCCCCCCCC)n1 [Compound D5S15N18],1.7%
9,CCCCCCCNc1nc(NCCN2CCN(C)CC2)nc(SCCCCCCC)n1 [Compound D5S7N7],1.0%
10,CCCCCCCCCCCCCCCCCCSc1nc(NCCCCCCCCCCCCCCC)nc(NCCCN2CCN(C)CC2)n1 [Compound D9S18N15],0.0%
11,CCCCCCCCCCCCCCCCNc1nc(NCCN2CCCCC2)nc(SCCCCCCCCC)n1 [Compound D4S9N16],2.2%
12,CCCCCCCCCCCCCCCCCCNc1nc(NCCCN2CCOCC2)nc(SCCCCCCCC)n1 [Compound D8S8N18],1.2%
13,CCCCCCCCCCCCCCCCCCNc1nc(NCCN2CCCCC2)nc(SCCCCCCCCCCCCCC)n1 [Compound D4S14N18],2.2%
14,CCCCCCCCCCCCCCCNc1nc(NCC2CCN(C)CC2)nc(SCCCCCCC)n1 [Compound D10S7N15],67.3%
15,CCCCCCCCCCCCCCCCCCNc1nc(NCCN2CCCC2)nc(SCCCCCCCCCCCCCC)n1 [Compound D3S14N18],1.5%
16,CCCCCCCCCCCCCCCCCCSc1nc(NCCCCCCCCCCCC)nc(NCCN(CC)CC)n1 [Compound D7S18N12],0.3%
17,CCCCCCCCCSc1nc(NCCCN2CCOCC2)nc(SCCCCCCCC)n1 [Compound D8S8S9],47.2%
18,CCCCCCCCCCCCCCCSc1nc(NCCCCCC)nc(NCCN2CCCC2)n1 [Compound D3S15N6],33.2%
19,CCCCCCCCCNc1nc(NCC2CCN(C)CC2)nc(SCCCCCC)n1 [Compound D10S6N9],1.2%
20,CCCCCCCSc1nc(NCCCN(C)C)nc(SCCCCCC)n1 [Compound D6S6S7],11.3%
21,CCCCCCCCCCCCCCCCCCSc1nc(NCCCCCCCCCCCCC)nc(NCCN2CCOCC2)n1 [Compound D2S18N13],0.0%
